Assay results published in the NIST ThermoML archive (doi:10.1016/j.jct.2015.09.002).
± gives the expanded uncertainty stated by the source.

Assay: xn = mol fraction of the nth substance listed
Settings: 93.2 kPa, Liquid, Vibrating tube method

CCCNCCC [dipropylamine] + CC#N
mass density [kg/m3]
Settings	293.15 K	298.15 K	303.15 K	308.15 K
x2 = 0	738.18 ± 2	733.64 ± 2	729.07 ± 2	724.48 ± 2
x2 = 0.0106	738.6 ± 2	734.04 ± 2	729.47 ± 2	724.87 ± 2
x2 = 0.0215	738.86 ± 2	734.31 ± 2	729.71 ± 2	725.09 ± 2
x2 = 0.0323	739.1 ± 2	734.53 ± 2	729.92 ± 2	725.29 ± 2
x2 = 0.0406	739.28 ± 2	734.72 ± 2	730.09 ± 2	725.48 ± 2
x2 = 0.0507	739.51 ± 2	734.94 ± 2	730.32 ± 2	725.71 ± 2
x2 = 0.0605	739.75 ± 2	735.16 ± 2	730.53 ± 2	725.91 ± 2
x2 = 0.0684	739.93 ± 2	735.34 ± 2	730.7 ± 2	726.08 ± 2
x2 = 0.0801	740.21 ± 2	735.61 ± 2	730.96 ± 2	726.32 ± 2
x2 = 0.0926	740.51 ± 2	735.91 ± 2	731.26 ± 2	726.61 ± 2
x2 = 0.101	740.71 ± 2	736.11 ± 2	731.45 ± 2	726.79 ± 2
x2 = 0.1493	741.88 ± 2	737.23 ± 2	732.56 ± 2	727.89 ± 2
x2 = 0.2009	743.16 ± 2	738.47 ± 2	733.79 ± 2	729.06 ± 2
x2 = 0.2547	744.47 ± 2	739.78 ± 2	735.06 ± 2	730.34 ± 2
x2 = 0.3001	745.65 ± 2	740.94 ± 2	736.2 ± 2	731.45 ± 2
x2 = 0.3514	747.06 ± 2	742.32 ± 2	737.55 ± 2	732.77 ± 2
x2 = 0.3995	748.45 ± 2	743.68 ± 2	738.88 ± 2	734.07 ± 2
x2 = 0.4556	750.19 ± 2	745.39 ± 2	740.57 ± 2	735.71 ± 2
x2 = 0.5008	751.71 ± 2	746.88 ± 2	742.02 ± 2	737.15 ± 2
x2 = 0.551	753.52 ± 2	748.66 ± 2	743.77 ± 2	738.86 ± 2
x2 = 0.6037	755.61 ± 2	750.71 ± 2	745.77 ± 2	740.81 ± 2
x2 = 0.6481	757.56 ± 2	752.63 ± 2	747.66 ± 2	742.67 ± 2
x2 = 0.6992	760.02 ± 2	755.04 ± 2	750.02 ± 2	744.98 ± 2
x2 = 0.7495	762.68 ± 2	757.65 ± 2	752.58 ± 2	747.48 ± 2
x2 = 0.7997	765.7 ± 2	760.61 ± 2	755.49 ± 2	750.33 ± 2
x2 = 0.8496	769.02 ± 2	763.85 ± 2	758.66 ± 2	753.43 ± 2
x2 = 0.9002	772.87 ± 2	767.63 ± 2	762.35 ± 2	757.05 ± 2
x2 = 0.9092	773.6 ± 2	768.35 ± 2	763.04 ± 2	757.76 ± 2
x2 = 0.9194	774.47 ± 2	769.22 ± 2	763.9 ± 2	758.59 ± 2
x2 = 0.9298	775.37 ± 2	770.09 ± 2	764.79 ± 2	759.45 ± 2
x2 = 0.9492	777.14 ± 2	771.83 ± 2	766.49 ± 2	761.13 ± 2
x2 = 0.9697	779.11 ± 2	773.75 ± 2	768.36 ± 2	762.97 ± 2
x2 = 0.9892	781.03 ± 2	775.63 ± 2	770.22 ± 2	764.78 ± 2

CCCCN [1-butanamine] + CC#N
mass density [kg/m3]
Settings	293.15 K	298.15 K	303.15 K	308.15 K
x2 = 0	737.12 ± 2	732.33 ± 2	727.51 ± 2	722.66 ± 2
x2 = 0.0102	737.48 ± 2	732.7 ± 2	727.88 ± 2	723.03 ± 2
x2 = 0.0229	737.89 ± 2	733.1 ± 2	728.28 ± 2	723.42 ± 2
x2 = 0.0481	738.62 ± 2	733.83 ± 2	729.01 ± 2	724.14 ± 2
x2 = 0.0616	738.99 ± 2	734.2 ± 2	729.37 ± 2	724.51 ± 2
x2 = 0.2006	742.87 ± 2	738.04 ± 2	733.19 ± 2	728.3 ± 2
x2 = 0.35	747.75 ± 2	742.84 ± 2	737.89 ± 2	732.98 ± 2
x2 = 0.4	749.52 ± 2	744.61 ± 2	739.64 ± 2	734.69 ± 2
x2 = 0.4503	751.36 ± 2	746.43 ± 2	741.47 ± 2	736.49 ± 2
x2 = 0.5007	753.36 ± 2	748.41 ± 2	743.43 ± 2	738.41 ± 2
x2 = 0.5489	755.38 ± 2	750.41 ± 2	745.4 ± 2	740.35 ± 2
x2 = 0.6002	757.66 ± 2	752.67 ± 2	747.61 ± 2	742.54 ± 2
x2 = 0.6492	759.99 ± 2	754.96 ± 2	749.88 ± 2	744.78 ± 2
x2 = 0.6998	762.57 ± 2	757.51 ± 2	752.4 ± 2	747.24 ± 2
x2 = 0.7488	765.21 ± 2	760.11 ± 2	754.97 ± 2	749.77 ± 2
x2 = 0.7997	768.18 ± 2	763.02 ± 2	757.82 ± 2	752.57 ± 2
x2 = 0.85	771.3 ± 2	766.08 ± 2	760.83 ± 2	755.54 ± 2
x2 = 0.9004	774.67 ± 2	769.4 ± 2	764.09 ± 2	758.76 ± 2
x2 = 0.9188	775.96 ± 2	770.66 ± 2	765.33 ± 2	759.98 ± 2
x2 = 0.9498	778.23 ± 2	772.9 ± 2	767.54 ± 2	762.15 ± 2
x2 = 0.96	779.01 ± 2	773.67 ± 2	768.29 ± 2	762.89 ± 2
x2 = 0.9694	779.73 ± 2	774.38 ± 2	769 ± 2	763.59 ± 2
x2 = 0.9804	780.56 ± 2	775.21 ± 2	769.81 ± 2	764.38 ± 2
x2 = 0.9892	781.24 ± 2	775.87 ± 2	770.46 ± 2	765.03 ± 2

CC(C)(C)N [2-methyl-2-propanamine] + CC#N
mass density [kg/m3]
Settings	293.15 K	298.15 K	303.15 K	308.15 K
x2 = 0	692.06 ± 2	686.65 ± 2	681.18 ± 2	675.66 ± 2
x2 = 0.009	692.79 ± 2	687.38 ± 2	681.92 ± 2	676.4 ± 2
x2 = 0.0205	693.46 ± 2	688.06 ± 2	682.61 ± 2	677.1 ± 2
x2 = 0.0313	694.05 ± 2	688.66 ± 2	683.22 ± 2	677.72 ± 2
x2 = 0.0421	694.67 ± 2	689.29 ± 2	683.85 ± 2	678.36 ± 2
x2 = 0.0536	695.33 ± 2	689.95 ± 2	684.53 ± 2	679.04 ± 2
x2 = 0.0625	695.85 ± 2	690.48 ± 2	685.06 ± 2	679.59 ± 2
x2 = 0.0694	696.27 ± 2	690.86 ± 2	685.44 ± 2	679.97 ± 2
x2 = 0.0801	696.87 ± 2	691.5 ± 2	686.09 ± 2	680.61 ± 2
x2 = 0.0874	697.28 ± 2	691.92 ± 2	686.51 ± 2	681.05 ± 2
x2 = 0.1006	698.07 ± 2	692.74 ± 2	687.34 ± 2	681.89 ± 2
x2 = 0.1489	701.01 ± 2	695.71 ± 2	690.34 ± 2	684.92 ± 2
x2 = 0.2023	704.54 ± 2	699.21 ± 2	693.83 ± 2	688.43 ± 2
x2 = 0.2493	707.7 ± 2	702.41 ± 2	697.06 ± 2	691.72 ± 2
x2 = 0.3021	711.23 ± 2	705.97 ± 2	700.63 ± 2	695.28 ± 2
x2 = 0.3487	714.58 ± 2	709.33 ± 2	704 ± 2	698.63 ± 2
x2 = 0.3998	718.28 ± 2	713.06 ± 2	707.73 ± 2	702.38 ± 2
x2 = 0.4489	721.98 ± 2	716.77 ± 2	711.44 ± 2	706.12 ± 2
x2 = 0.501	726.15 ± 2	720.91 ± 2	715.64 ± 2	710.33 ± 2
x2 = 0.5485	730.26 ± 2	725.04 ± 2	719.77 ± 2	714.47 ± 2
x2 = 0.6009	735.01 ± 2	729.79 ± 2	724.53 ± 2	719.22 ± 2
x2 = 0.6494	739.58 ± 2	734.35 ± 2	729.08 ± 2	723.75 ± 2
x2 = 0.6932	743.94 ± 2	738.74 ± 2	733.46 ± 2	728.14 ± 2
x2 = 0.7494	749.81 ± 2	744.57 ± 2	739.28 ± 2	733.95 ± 2
x2 = 0.8001	755.58 ± 2	750.29 ± 2	744.99 ± 2	739.64 ± 2
x2 = 0.8497	761.5 ± 2	756.2 ± 2	750.87 ± 2	745.51 ± 2
x2 = 0.8984	767.7 ± 2	762.38 ± 2	757.02 ± 2	751.64 ± 2
x2 = 0.9093	769.13 ± 2	763.81 ± 2	758.46 ± 2	753.06 ± 2
x2 = 0.9202	770.57 ± 2	765.25 ± 2	759.88 ± 2	754.48 ± 2
x2 = 0.9292	771.83 ± 2	766.5 ± 2	761.11 ± 2	755.72 ± 2
x2 = 0.9401	773.34 ± 2	768 ± 2	762.61 ± 2	757.2 ± 2
x2 = 0.9501	774.73 ± 2	769.38 ± 2	763.99 ± 2	758.56 ± 2
x2 = 0.9599	776.15 ± 2	770.78 ± 2	765.38 ± 2	759.96 ± 2
x2 = 0.9699	777.57 ± 2	772.2 ± 2	766.79 ± 2	761.36 ± 2
x2 = 0.9795	778.96 ± 2	773.59 ± 2	768.17 ± 2	762.72 ± 2
x2 = 0.9892	780.39 ± 2	775.01 ± 2	769.59 ± 2	764.14 ± 2
